Results reported in PubChem BioAssay AID248 (DTP/NCI, 2004).
Values joined by “and” are separate entries in the source; they are usually repeats but may differ in a detail not shown here. Equal values may be shown once. Toxic doses and inconclusive results are not listed. Rule as the data show it: active = T/C of 150% or more; inactive = T/C below 125%.

System: L1210 leukemia ip in BDF1 mice, survival T/C
Experiment: NCI In Vivo Anticancer Drug Screen. Data for tumor model L1210 Leukemia (intraperitoneal) in B6D2F1 (BDF1) mice
Settings: endpoint: mean survival time, higher = longer survival
In short: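 Tumor was transplanted into mice, which were then dosed with test compound or vehicle alone. Survival was recorded for each group, and the treated figure was expressed relative to the control figure.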

[1] = dose: 100.0 mg/kg/injection, schedule: Q01DX001 (ip), vehicle: saline
[2] = dose: 100.0 mg/kg/injection, schedule: Q04DX003 (ip), vehicle: Klucel (hydroxypropylcellulose) (HPC)
[3] = dose: 200.0 mg/kg/injection, schedule: Q01DX001 (ip), vehicle: saline
[4] = dose: 100.0 mg/kg/injection, schedule: Q04DX002 (ip), vehicle: saline with Tween-80
[5] = dose: 200.0 mg/kg/injection, schedule: Q04DX002 (ip), vehicle: saline with Tween-80
[6] = dose: 25.0 mg/kg/injection, schedule: Q01DX009 (ip), vehicle: saline

Measured: T/C

O=C1OC(c2c3ccccc3cc3ccccc23)c2ccccc21 (stereo unspecified)
inactive: dose: 50.0 mg/kg/injection, schedule: Q01DX009 (ip), vehicle: saline with Tween-80 98 % of control | dose: 100.0 mg/kg/injection, schedule: Q01DX009 (ip), vehicle: saline with Tween-80 98 % of control | dose: 200.0 mg/kg/injection, schedule: Q01DX009 (ip), vehicle: saline with Tween-80 95 % of control

O=C(c1ccc(-c2ccccc2)cc1)C1CC1c1ccccc1 (stereo unspecified)
inactive: dose: 100.0 mg/kg/injection, schedule: Q01DX009 (ip), vehicle: saline sonified 97 % of control | dose: 200.0 mg/kg/injection, schedule: Q01DX009 (ip), vehicle: saline sonified 96 % of control | dose: 400.0 mg/kg/injection, schedule: Q01DX009 (ip), vehicle: saline sonified 91 % of control

COC(=O)c1nc(Cl)nc(I)c1Cl
inactive: dose: 12.5 mg/kg/injection, schedule: Q01DX001 (ip), vehicle: other 102 % of control | dose: 25.0 mg/kg/injection, schedule: Q01DX001 (ip), vehicle: other 90 % of control

Cc1ccc(S(=O)(=O)NS(=O)(=O)c2ccc(C)cc2)cc1
inactive: [1] 101 % of control | [2] 100 % of control | [3] 106 % of control

CC(C)c1ccccc1NC1=NCCO1
inactive: dose: 12.5 mg/kg/injection, schedule: Q01DX009 (ip), vehicle: Klucel (hydroxypropylcellulose) (HPC) 86 % of control | dose: 25.0 mg/kg/injection, schedule: Q01DX009 (ip), vehicle: Klucel (hydroxypropylcellulose) (HPC) 89 % of control | dose: 25.0 mg/kg/injection, schedule: Q04DX002 (ip), vehicle: saline with Tween-80 101 % of control | dose: 50.0 mg/kg/injection, schedule: Q01DX009 (ip), vehicle: Klucel (hydroxypropylcellulose) (HPC) 96 % of control and 89 % of control | dose: 50.0 mg/kg/injection, schedule: Q04DX002 (ip), vehicle: saline with Tween-80 96 % of control | [4] 86 % of control | [5] 86 % of control

O=C(CC1OCCO1)c1ccccc1
inactive: dose: 50.0 mg/kg/injection, schedule: Q04DX002 (ip), vehicle: saline 95 % of control | dose: 100.0 mg/kg/injection, schedule: Q04DX002 (ip), vehicle: saline 89 % of control | dose: 200.0 mg/kg/injection, schedule: Q04DX002 (ip), vehicle: saline 95 % of control | dose: 400.0 mg/kg/injection, schedule: Q04DX002 (ip), vehicle: saline 95 % of control

C=CCNC(=S)N(CCC#N)C1CCCCC1
inactive: [4] 101 % of control | [5] 90 % of control | dose: 400.0 mg/kg/injection, schedule: Q04DX002 (ip), vehicle: saline with Tween-80 93 % of control

CN(C)CCOC(=O)c1ccccc1CBr
inactive: [6] 97 % of control | dose: 50.0 mg/kg/injection, schedule: Q01DX009 (ip), vehicle: saline 95 % of control | dose: 75.0 mg/kg/injection, schedule: Q01DX009 (ip), vehicle: saline 93 % of control

CN1C(=O)OC2(CCN(Cc3ccccc3)CC2)C1=O
inactive: [2] 102 % of control | dose: 200.0 mg/kg/injection, schedule: Q04DX003 (ip), vehicle: Klucel (hydroxypropylcellulose) (HPC) 90 % of control | dose: 400.0 mg/kg/injection, schedule: Q04DX003 (ip), vehicle: Klucel (hydroxypropylcellulose) (HPC) 98 % of control

O=C(CC(=O)C(F)(F)C(F)(F)C(F)(F)F)C(F)(F)F
inactive: dose: 12.5 mg/kg/injection, schedule: Q01DX009 (ip), vehicle: saline 107 % of control | dose: 12.5 mg/kg/injection, schedule: Q04DX003 (ip), vehicle: saline 102 % of control | [6] 88 % of control | dose: 25.0 mg/kg/injection, schedule: Q04DX003 (ip), vehicle: saline 87 % of control | dose: 50.0 mg/kg/injection, schedule: Q04DX003 (ip), vehicle: saline 93 % of control

CN=C(NC)c1cccc(NC(=O)Nc2ccc(NC(=O)Nc3cccc(C(=NC)NC)c3)cc2)c1
inactive: dose: 2.3 mg/kg/injection, schedule: Q01DX Z (ip), vehicle: carboxymethylcellulose (CMC) 93 % of control | dose: 3.5 mg/kg/injection, schedule: Q01DX Z (ip), vehicle: carboxymethylcellulose (CMC) 97 % of control | dose: 5.3 mg/kg/injection, schedule: Q01DX Z (ip), vehicle: carboxymethylcellulose (CMC) 95 % of control | dose: 5.5 mg/kg/injection, schedule: Q01DX Z (ip), vehicle: carboxymethylcellulose (CMC) 96 % of control | dose: 8.0 mg/kg/injection, schedule: Q01DX Z (ip), vehicle: carboxymethylcellulose (CMC) 97 % of control | dose: 8.3 mg/kg/injection, schedule: Q01DX Z (ip), vehicle: carboxymethylcellulose (CMC) 98 % of control | dose: 12.5 mg/kg/injection, schedule: Q01DX Z (ip), vehicle: carboxymethylcellulose (CMC) 101 % of control | dose: 18.75 mg/kg/injection, schedule: Q01DX Z (ip), vehicle: carboxymethylcellulose (CMC) 115 % of control

CCCCCCCCCCCCCCCCCCCC[As](=O)(O)CCCCCCCCCCCCCCCCCCCC
inactive: dose: 50.0 mg/kg/injection, schedule: Q01DX001 (ip), vehicle: saline 97 % of control | [1] 101 % of control | [3] 95 % of control | dose: 400.0 mg/kg/injection, schedule: Q01DX001 (ip), vehicle: saline 103 % of control

CC1CC(=O)NN1C(O)c1ccc2c(c1)OCO2 (stereo unspecified)
inactive: dose: 100.0 mg/kg/injection, schedule: Q04DX002 (ip), vehicle: Klucel (hydroxypropylcellulose) (HPC) 97 % of control | dose: 200.0 mg/kg/injection, schedule: Q04DX002 (ip), vehicle: Klucel (hydroxypropylcellulose) (HPC) 97 % of control

CCCCCCCOc1ccc(C2=C(c3ccccc3)C(=O)C(c3ccccc3)=C2c2ccccc2)cc1
inactive: dose: 100.0 mg/kg/injection, schedule: Q01DX001 (ip), vehicle: carboxymethylcellulose (CMC) 100 % of control | dose: 200.0 mg/kg/injection, schedule: Q01DX001 (ip), vehicle: carboxymethylcellulose (CMC) 100 % of control | dose: 400.0 mg/kg/injection, schedule: Q01DX001 (ip), vehicle: carboxymethylcellulose (CMC) 94 % of control

CO[C@@H]1CCCCCC[C@H]1[Hg][Cl]
inactive: dose: 2.0 mg/kg/injection, schedule: Q01DX015 (ip), vehicle: carboxymethylcellulose (CMC) 104 % of control | dose: 4.0 mg/kg/injection, schedule: Q01DX015 (ip), vehicle: carboxymethylcellulose (CMC) 95 % of control | dose: 5.0 mg/kg/injection, schedule: Q01DX001 (ip), vehicle: carboxymethylcellulose (CMC) 108 % of control | dose: 8.0 mg/kg/injection, schedule: Q01DX015 (ip), vehicle: carboxymethylcellulose (CMC) 101 % of control | dose: 10.0 mg/kg/injection, schedule: Q01DX001 (ip), vehicle: carboxymethylcellulose (CMC) 112 % of control | dose: 16.0 mg/kg/injection, schedule: Q01DX015 (ip), vehicle: carboxymethylcellulose (CMC) 93 % of control | dose: 20.0 mg/kg/injection, schedule: Q01DX001 (ip), vehicle: carboxymethylcellulose (CMC) 114 % of control | dose: 40.0 mg/kg/injection, schedule: Q01DX001 (ip), vehicle: carboxymethylcellulose (CMC) 108 % of control

CCc1cccc[n+]1CC(=O)c1ccc(-c2ccccc2)cc1
inactive: [2] 86 % of control

CSc1ncnc2c1ncn2C1OC(COC(N)=O)C(O)C1O (stereo unspecified)
inactive: dose: 100.0 mg/kg/injection, schedule: Q01DX005 (ip), vehicle: saline 107 % of control | dose: 200.0 mg/kg/injection, schedule: Q01DX005 (ip), vehicle: saline 114 % of control

Nc1nc2c(c(=O)[nH]1)N=C(CNc1ccc(C(=O)NC(CCC(=O)O)C(=O)O)cc1)CN2 (stereo unspecified)
inactive: dose: 2.0 mg/kg/injection, schedule: Q01DX009 (ip), vehicle: sodium bicarbonate 109 % of control | dose: 4.0 mg/kg/injection, schedule: Q01DX009 (ip), vehicle: sodium bicarbonate 115 % of control | dose: 8.0 mg/kg/injection, schedule: Q01DX009 (ip), vehicle: sodium bicarbonate 116 % of control | dose: 16.0 mg/kg/injection, schedule: Q01DX009 (ip), vehicle: sodium bicarbonate 115 % of control

CC(C)(C)N(CCO)CC1C(c2ccccc2)C1c1ccccc1 (stereo unspecified)
inactive: dose: 12.5 mg/kg/injection, schedule: Q04DX002 (ip), vehicle: Klucel (hydroxypropylcellulose) (HPC) 103 % of control | dose: 25.0 mg/kg/injection, schedule: Q04DX002 (ip), vehicle: Klucel (hydroxypropylcellulose) (HPC) 103 % of control | dose: 50.0 mg/kg/injection, schedule: Q04DX002 (ip), vehicle: Klucel (hydroxypropylcellulose) (HPC) 97 % of control
